According to patent US8962665B2, “Thiazole and oxazole kinase inhibitors” (AB Science, priority 2010, dated 2015):

Biological target: T1, Syk (Homo sapiens, UniProt P43405)
T1 construct: SYK kinase was purified as a full length protein in a baculovirus system near homogeneity; made in house; host or cells: baculovirus system
Experiment: Syk kinase HTRF (Kinease TK) assay
Assay type: biochemical
Procedure: SYK kinase was purified as a full length protein in a baculovirus system near homogeneity. JAKs kinases (JAK1, JAK2 and JAK3) were purchased either from Invitrogen or from Millipore. All kinases assays were performed with the Kinease TK (tyrosine kinase) HTRF (Homogeneous Time Resolved Fluorescence) assay developed by Cisbio international. […] Reactions were initiated upon introduction of the enzyme and terminated with the addition of one reaction volume (25 μl) of HTRF detection buffer. Plates were incubated for one hour at room temperature and the time resolved Fluorescence resonance energy transfer signal was measured in a Pherastar FS microplate reader (BMG Labtech). All data are the average of triplicate results with a standard deviation<10%.

Row | Compound | IC50 [µM]
1 | Cc1ccc(Nc2cccc(-c3cnc(-c4ccc5[nH]ccc5c4)o3)n2)nc1 [Example 116, {6-[2-(1H-Indol-5-yl)-oxazol-5-yl]-pyridin-2-yl}-(5-methyl-pyridin-2-yl)-amine] | 1 to 10
2 | Cc1ccnc(Nc2cccc(-c3cnc(N4CCOCC4)o3)n2)c1 [Example 099, (4-Methyl-pyridin-2-yl)-[6-(2-morpholin-4-yl-oxazol-5-yl)-pyridin-2-yl]-amine] | < 1
3 | Cc1ccnc(Nc2cccc(-c3cnc(-c4c(C)cccc4C)o3)n2)c1 [Example 062, {6-[2-(2,6-Dimethyl-phenyl)-oxazol-5-yl]-pyridin-2-yl}-(4-methyl-pyridin-2-yl)-amine] | 1 to 10
4 | Cc1ccnc(Nc2cccc(-c3cnc(-c4cccc(C#N)c4)s3)n2)c1 [Example 064, 3-{5-[6-(4-Methyl-pyridin-2-ylamino)-pyridin-2-yl]-thiazol-2-yl}-benzonitrile] | 1 to 10
5 | O=C1CN(c2ncc(-c3cccc(Nc4cnccn4)n3)o2)CCN1 [Example 140, 4-{5-[6-(Pyrazin-2-ylamino)-pyridin-2-yl]-oxazol-2-yl}-piperazine-2-one] | < 1
6 | Cc1ccc(Nc2cccc(-c3cnc(N4CCNC(=O)C4)o3)n2)nc1 [Example 118, 4-{5-[6-(5-Methyl-pyridin-2-ylamino)-pyridin-2-yl]-oxazol-2-yl}-piperazine-2-one] | < 1
7 | Cc1ccnc(Nc2cccc(-c3cnc(-c4cccnc4)s3)n2)c1 [Example 020, (4-Methyl-pyridin-2-yl)-[6-(2-pyridin-3-yl-thiazol-5-yl)-pyridin-2-yl]-amine] | < 1
8 | Cc1ccnc(Nc2cccc(-c3cnc(-c4ccc[nH]c4=O)o3)n2)c1 [Example 045, 3-{5-[6-(4-methyl-pyridin-2-ylamino)-pyridin-2-yl]-oxazol-2-yl}-1H-pyridin-2-one] | < 1
9 | Clc1ccnc(Nc2cccc(-c3cnc(-c4ccsc4)o3)n2)c1 [Example 120, (4-Chloro-pyridin-2-yl)-[6-(2-thiophen-3-yl-oxazol-5-yl)-pyridin-2-yl]-amine] | 1 to 10
10 | Cc1ccnc(Nc2cccc(-c3cnc(-c4nc5ccccc5o4)o3)n2)c1 [Example 048, [6-(2-benzoxazole-2-yl-oxazol-5-yl)-pyridin-2-yl]-(4-methyl-pyridin-2-yl)-amine] | < 1
11 | Cc1ccnc(Nc2cccc(-c3cnc(-c4ccccc4)s3)n2)c1 [Example 056, (4-Methyl-pyridin-2-yl)-[6-(2-phenyl-thiazol-5-yl)-pyridin-2-yl]-amine] | < 1
12 | Cc1ccnc(Nc2cccc(-c3cnc(-c4ccccn4)s3)n2)c1 [Example 080, (4-Methyl-pyridin-2-yl)-[6-(2-pyridin-2-yl-thiazol-5-yl)-pyridin-2-yl]-amine] | < 1
13 | Cc1ccnc(Nc2cccc(-c3cnc(-c4ccc5[nH]ccc5c4)o3)n2)c1 [Example 069, {6-[2-(1H-Indol-5-yl)-oxazol-5-yl]-pyridin-2-yl}-(4-methyl-pyridin-2-yl)-amine] | < 1
